Measurements taken from patent publication US10010624B2, “Pyrrolobenzodiazepine-antibody conjugates” (MEDIMMUNE LIMITED, priority 2013, dated 2018).

Tested on: K562 human chronic myeloid leukaemia cells
Assay: K562 assay (MTT cytotoxicity of released compounds)
Assay type: cell-based
Conditions: drug incubation 1 hour or 96 hours (not specified which), MTT readout, dose reducing optical density to 50% of control
Method: K562 human chronic myeloid leukaemia cells were maintained in RPM1 1640 medium supplemented with 10% fetal calf serum and 2 mM glutamine at 37° C. in a humidified atmosphere containing 5% CO2 and were incubated with a specified dose of drug for 1 hour or 96 hours at 37° C. in the dark. The incubation was terminated by centrifugation (5 min, 300 g) and the cells were washed once with drug-free medium. Following the appropriate drug treatment, the cells were transferred to 96-well microtiter plates (10^4 cells per well, 8 wells per sample). Plates were then kept in the dark at 37° C. in a humidified atmosphere containing 5% CO2. The assay is based on the ability of viable cells to reduce a yellow soluble tetrazolium salt, 3-(4,5-dimethylthiazol-2-yl)-2,5-diphenyl-2H-tetrazolium bromide (MTT, Aldrich-Sigma), to an insoluble purple formazan precipitate. Following incubation of the plates for 4 days (to allow control cells to increase in number by approximately 10 fold), 20 μL of MTT solution (5 mg/mL in phosphate-buffered saline) was added to each well and the plates further incubated for 5 h. The plates were then centrifuged for 5 min at 300 g and the bulk of the medium pipetted from the cell pellet leaving 10-20 μL per well. […] The optical density was then read at a wavelength of 550 nm on a Titertek Multiscan ELISA plate reader, and a dose-response curve was constructed. […]

COc1cc2c(cc1OCCCCCOc1cc3c(cc1OC)C(=O)N1C=C(C)C[C@H]1C=N3)N=C[C@@H]1CC(C)=CN1C2=O [Compound RelC]
IC50: 0.425 nM
